Source: patent US9555023B2, “Pharmaceutical salts and polymorphs of a factor Xa inhibitor” (Millennium Pharmaceuticals, Inc., priority 2005, dated 2017)
Read-outs that look alike come from different tables or passages of the source. Blank lines part the entries; values can stand above or below the compound they belong to.

Legend:
[1] = Secondary screen: crystallinity (XRPD); assay type: physicochemical; details: for Crystallinity: secondary screen, Table 5
Protocol: X-Ray Powder Diffraction patterns were collected on a Siemens D5000 diffractometer using CuKα radiation (40 kV, 40 mA), […], automatic divergence and receiving slits, a graphite secondary monochromator and a scintillation counter.
Samples run under ambient conditions were prepared as flat plate specimens using powder. Approximately 35 mg of the sample was gently packed into a cavity cut into polished, zero-background (510) silicon wafer. The sample was rotated in its own plane during analysis. The details of the data collection are given for the method in Table 2 below: […]

[2] = Stability: hydrolyzed amidine content by HPLC after 57° C. / 75% humidity; assay type: physicochemical; details: for Hydrolyzed Amidine Content (3 days) / Hydrolyzed Amidine Content (6 days) / Hydrolyzed Amidine Content (10 days): 57° C., 75% room humidity, percentage of the main peak
Protocol: To assess the thermal and hydrolytic stability of the salt, tests known to those of skill in the art are performed.
The sample solvent was methanol and a mobile phase modifier of 0.1% trifluoroacetic acid was employed. Data were collected after 3, 6 and 10 days except data for the propionate was collected at 0, 3, and 8 days. […] All other impurity peaks were disregarded in the calculation

[3] = Primary salt screen (purity, crystallinity and stability of precipitated salts); details: 20 mg free base in 10% (aq.) THF, 1.1 eq. acid in ethanol, tert-butyl methyl ether to induce precipitation
Protocol: To 20 mg of the free base in 3 mL of 10% (aq.) THF mixture was added 1.1 eq. of the acid in 1 mL ethanol. The mixture was shaken for 2 hours, followed by the addition of 2 mL of tert-butyl methyl ether in order to induce precipitation and shaken for another 2 hours. The samples were then filtered, dried and then analyzed to judge their purity, crystallinity and stability.

[4] = Gravimetric vapour sorption (GVS) water sorption; assay type: physicochemical; details: GVS isotherm, XRPD post GVS
Protocol: All samples were run on a Hiden IGASorp moisture sorption analyzer running CFRSorp software. Sample sizes were typically 10 mg. A moisture adsorption desorption isotherm was performed as outlined below (2 scans giving 1 complete cycle). All samples were loaded/unloaded at typical room humidity and temperature (40% RH, 25° C.). All samples were analyzed by XRPD post GVS analysis. The standard isotherm was performed at 25° C. at 10% RH intervals over a 0-90% RH range.

[5] = Solubility in water by HPLC; assay type: physicochemical
Protocol: This was measured by suspending enough salt in 0.25 mL of solvent (water) to give a maximum final concentration of ≧10 mg/mL of the parent free form of the salt. The suspension was equilibrated at 25° C. for 24 hr followed by a pH check and filtration through a glass fibre C 96 well plate. The filtrate was then diluted down 101×. Quantitation was by HPLC with reference to a standard dissolved in DMSO at approx 0.1 mg/mL. Different volumes of the standard, diluted and undiluted tests were injected. […] If there was sufficient solid in the filter plate the XRPD was normally checked for phase changes, hydrate formation, amorphization, crystallization, etc.

[6] = Log P determination by potentiometric titration (Sirius GlpKa); assay type: physicochemical; details: Octanol:ISA water
Source text: This was by potentiometric titration on a Sirius GlpKa instrument using three ratios of Octanol:ISA water to generate Log P, Log Pion, and Log D values. The data was refined using Refinement Pro software version 1.0. Predictions of Log P were made using ACD Ver. 8.08 and Syracuse KNOWWIN Ver. 1.67 software.

[7] = target: factor Xa (Homo sapiens, UniProt P00742); details: cited from earlier work
factor Xa, sequence (P00742 235-488 limits assumed): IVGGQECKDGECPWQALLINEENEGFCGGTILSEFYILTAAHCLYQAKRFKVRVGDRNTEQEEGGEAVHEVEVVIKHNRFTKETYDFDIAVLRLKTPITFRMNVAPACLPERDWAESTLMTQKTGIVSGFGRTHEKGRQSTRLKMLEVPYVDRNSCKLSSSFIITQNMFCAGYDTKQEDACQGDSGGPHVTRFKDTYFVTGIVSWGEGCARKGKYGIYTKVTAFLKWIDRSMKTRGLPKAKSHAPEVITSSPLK
factor Xa, sequence (P00742 41-179 partner limits assumed): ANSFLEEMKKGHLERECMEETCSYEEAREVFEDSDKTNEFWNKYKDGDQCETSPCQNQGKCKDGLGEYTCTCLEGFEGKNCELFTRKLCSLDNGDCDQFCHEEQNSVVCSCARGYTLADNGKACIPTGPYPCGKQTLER

Compound: CC(=O)O [Acetate]
crystallinity (in words) [1]: good crystallinity
Crystallinity [1]: crystalline
thermal and hydrolytic stability (in words) [2]: did not possess good thermal and hydrolytic stability
Hydrolyzed Amidine Content (3 days) [2]: 0.62-1.11%
Hydrolyzed Amidine Content (6 days) [2]: 2.30-3.56%
Hydrolyzed Amidine Content (10 days) [2]: 3.61-7.90%

Compound: COc1ccc(NC(=O)c2ccc(C(=N)N(C)C)cc2)c(C(=O)Nc2ccc(Cl)cn2)c1 [Maleate]
moisture stability [4]: excellent moisture stability
solubility at 24 h ([5]; thermodynamic from solid, water, 25° C., 24 hr, as parent free form): 2050 to 2270 µg/mL
Measured LogPion [6]: −0.08
logD ([6]; read-out: Measured LogD): 0.09
logP ([6]; read-out: Measured LogP): 3.09
thermal and hydrolytic stability (in words) ([2]; listed as maleate salt): best stability observed
thermal and hydrolytic stability (in words) ([2]; listed as maleate salt of Formula II): excellent

Compound: Adipic
Salt (primary screen grade: purity, crystallinity and stability) [3]: ++

Compound: O=C(O)CC(=O)O [Malonic]
Salt (primary screen grade: purity, crystallinity and stability) [3]: −

Compound: Cl [Hydrochloric]
Crystallinity [1]: amorphous
Salt (primary screen grade: purity, crystallinity and stability) [3]: +++

More lines, main results first:

Crystallinity [1]: amorphous
Salt (primary screen grade: purity, crystallinity and stability) [3]: +++
Compound: O=C(O)CCC(=O)O [Succinic]

solubility (in words) [5]: did not exhibit optimum solubility
Compound: COc1ccc(NC(=O)c2ccc(C(=N)N(C)C)cc2)c(C(=O)Nc2ccc(Cl)cn2)c1 [compound of Formula I]
factor Xa inhibition (in words) [7]: potent factor Xa inhibitor

Crystallinity [1]: crystalline
Hydrolyzed Amidine Content (3 days) [2]: 2.22%
Hydrolyzed Amidine Content (6 days) [2]: 2.97%
Hydrolyzed Amidine Content (10 days) [2]: 1.71%
Salt (primary screen grade: purity, crystallinity and stability) [3]: +++
Compound: Propionic

Salt (primary screen grade: purity, crystallinity and stability) [3]: +
Compound: O=S(=O)(O)c1cccc2c(S(=O)(=O)O)cccc12 [Naphthalene-1,5-disulfonic]
